Experimental data published in patent publication US11420958B2, “Aryl and heteroaryl substituted indole compounds” (BRISTOL-MYERS SQUIBB COMPANY, priority 2017, dated 2022).

Tests used:
Type in all cases: cell-based
[1] = target: human TLR7 (Homo sapiens (Human), UniProt Q9NYK1); test: TLR7 inhibition reporter assay (HEK-Blue, SEAP); settings: HEK-Blue cells overexpressing human TLR7, gardiquimod 7.5 μM stimulation
Method in brief: (§1)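 Percent inhibition of agonist-induced SEAP secretion was scored against DMSO-only and reference-inhibitor controls. Stimulation lasted 22 h at 37 °C following 30 min compound pre-exposure (0.05 nM–50 μM); ligands were gardiquimod 7.5 μM, R848 15.9 μM and ODN2006 5 nM for TLR7, 8 and 9.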

[2] = target: human TLR9 (Homo sapiens (Human), UniProt Q9NR96); test: TLR9 inhibition reporter assay (HEK-Blue, SEAP); settings: HEK-Blue cells overexpressing human TLR9, ODN2006 5 nM stimulation
Method in brief: as §1

[3] = target: human TLR8 (Homo sapiens (Human), UniProt Q9NR97); test: TLR8 inhibition reporter assay (HEK-Blue, SEAP); settings: HEK-Blue cells overexpressing human TLR8, R848 15.9 μM stimulation
Method in brief: as §1

human TLR8, sequence (Q9NR97 27-1041): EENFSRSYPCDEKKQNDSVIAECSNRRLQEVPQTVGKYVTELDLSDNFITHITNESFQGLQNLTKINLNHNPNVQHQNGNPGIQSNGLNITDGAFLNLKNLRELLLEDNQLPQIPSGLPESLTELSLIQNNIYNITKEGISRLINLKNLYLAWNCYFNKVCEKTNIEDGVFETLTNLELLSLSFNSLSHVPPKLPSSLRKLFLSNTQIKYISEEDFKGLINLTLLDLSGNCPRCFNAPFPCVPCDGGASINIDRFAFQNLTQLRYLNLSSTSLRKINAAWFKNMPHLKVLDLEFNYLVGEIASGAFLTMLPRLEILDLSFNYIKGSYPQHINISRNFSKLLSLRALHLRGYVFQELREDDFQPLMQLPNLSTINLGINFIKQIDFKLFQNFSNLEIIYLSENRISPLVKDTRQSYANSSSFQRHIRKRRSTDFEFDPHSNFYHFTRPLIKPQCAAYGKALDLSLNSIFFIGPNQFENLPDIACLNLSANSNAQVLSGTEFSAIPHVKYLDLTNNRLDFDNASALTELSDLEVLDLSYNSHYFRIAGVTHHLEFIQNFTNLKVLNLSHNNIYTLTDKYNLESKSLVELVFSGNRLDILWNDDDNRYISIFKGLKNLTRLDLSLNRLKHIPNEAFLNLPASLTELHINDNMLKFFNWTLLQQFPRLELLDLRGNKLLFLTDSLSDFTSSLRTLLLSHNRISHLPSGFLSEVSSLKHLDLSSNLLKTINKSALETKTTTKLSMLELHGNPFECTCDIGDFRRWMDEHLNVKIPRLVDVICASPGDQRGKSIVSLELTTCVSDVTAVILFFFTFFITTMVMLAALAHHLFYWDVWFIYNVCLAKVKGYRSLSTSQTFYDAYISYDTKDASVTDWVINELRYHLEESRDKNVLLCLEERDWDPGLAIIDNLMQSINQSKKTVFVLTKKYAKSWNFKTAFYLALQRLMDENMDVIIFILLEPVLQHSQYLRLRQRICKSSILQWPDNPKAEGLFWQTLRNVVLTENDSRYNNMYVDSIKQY
human TLR7, sequence (Q9NYK1 27-1049): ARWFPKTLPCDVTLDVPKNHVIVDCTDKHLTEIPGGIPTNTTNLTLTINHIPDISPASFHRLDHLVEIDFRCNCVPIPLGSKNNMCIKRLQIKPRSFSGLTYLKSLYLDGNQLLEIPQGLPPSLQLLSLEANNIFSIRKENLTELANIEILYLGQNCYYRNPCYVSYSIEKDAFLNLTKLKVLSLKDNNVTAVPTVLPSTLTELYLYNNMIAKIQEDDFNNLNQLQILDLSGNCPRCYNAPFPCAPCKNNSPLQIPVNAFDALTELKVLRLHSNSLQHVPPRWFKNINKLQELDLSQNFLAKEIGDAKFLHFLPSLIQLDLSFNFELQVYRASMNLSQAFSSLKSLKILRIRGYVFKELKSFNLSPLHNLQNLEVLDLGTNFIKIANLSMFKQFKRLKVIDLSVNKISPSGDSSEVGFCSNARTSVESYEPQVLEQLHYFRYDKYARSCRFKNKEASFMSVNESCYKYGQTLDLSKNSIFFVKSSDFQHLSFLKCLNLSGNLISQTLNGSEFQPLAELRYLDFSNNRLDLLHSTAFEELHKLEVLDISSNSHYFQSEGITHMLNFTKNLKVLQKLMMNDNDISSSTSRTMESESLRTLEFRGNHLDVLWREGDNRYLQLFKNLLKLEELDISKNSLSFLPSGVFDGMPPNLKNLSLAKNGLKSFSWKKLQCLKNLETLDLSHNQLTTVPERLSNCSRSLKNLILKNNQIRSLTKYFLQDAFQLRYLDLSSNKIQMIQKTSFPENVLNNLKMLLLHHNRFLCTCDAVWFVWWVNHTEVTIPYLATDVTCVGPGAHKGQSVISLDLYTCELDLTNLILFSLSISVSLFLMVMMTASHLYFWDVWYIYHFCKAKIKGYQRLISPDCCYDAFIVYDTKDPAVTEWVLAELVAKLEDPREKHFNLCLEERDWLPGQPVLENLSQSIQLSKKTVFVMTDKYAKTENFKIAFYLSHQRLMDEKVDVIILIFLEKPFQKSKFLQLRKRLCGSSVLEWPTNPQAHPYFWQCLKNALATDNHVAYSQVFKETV
human TLR9, sequence (Q9NR96 26-1032): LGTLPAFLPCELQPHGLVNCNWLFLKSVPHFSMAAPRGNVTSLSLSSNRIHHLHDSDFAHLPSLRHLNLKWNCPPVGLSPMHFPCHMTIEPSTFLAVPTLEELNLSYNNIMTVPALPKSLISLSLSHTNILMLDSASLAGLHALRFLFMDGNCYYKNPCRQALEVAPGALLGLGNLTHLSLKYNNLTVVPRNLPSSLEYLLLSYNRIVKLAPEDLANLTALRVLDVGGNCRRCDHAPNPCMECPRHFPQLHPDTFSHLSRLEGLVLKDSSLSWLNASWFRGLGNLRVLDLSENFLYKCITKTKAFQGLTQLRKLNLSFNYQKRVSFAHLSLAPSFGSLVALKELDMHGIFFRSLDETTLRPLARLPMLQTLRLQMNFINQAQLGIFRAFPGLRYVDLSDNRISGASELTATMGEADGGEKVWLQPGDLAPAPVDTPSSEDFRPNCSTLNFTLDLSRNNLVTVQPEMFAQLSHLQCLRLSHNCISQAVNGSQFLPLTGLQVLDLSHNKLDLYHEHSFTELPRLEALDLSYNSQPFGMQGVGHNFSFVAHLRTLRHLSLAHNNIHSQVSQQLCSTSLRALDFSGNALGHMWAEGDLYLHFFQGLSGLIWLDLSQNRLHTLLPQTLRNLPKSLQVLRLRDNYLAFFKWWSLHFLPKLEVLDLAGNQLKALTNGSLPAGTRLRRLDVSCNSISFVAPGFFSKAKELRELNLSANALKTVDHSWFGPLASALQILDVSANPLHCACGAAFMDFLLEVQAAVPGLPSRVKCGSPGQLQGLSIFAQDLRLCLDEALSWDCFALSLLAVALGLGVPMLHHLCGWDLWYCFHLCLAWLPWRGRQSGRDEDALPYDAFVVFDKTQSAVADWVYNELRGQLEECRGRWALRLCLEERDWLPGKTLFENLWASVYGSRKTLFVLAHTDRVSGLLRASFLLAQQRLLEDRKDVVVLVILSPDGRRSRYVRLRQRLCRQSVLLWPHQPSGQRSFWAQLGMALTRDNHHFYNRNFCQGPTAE

Row | Structure (SMILES) | IC50 [1] [nM] | IC50 [2] [nM] | IC50 [3] [nM]
1 | Cc1cc(-c2[nH]c3ccc(-c4nnc(C5CCCN(C(C)C)C5)o4)cc3c2CC(F)F)cc(C)n1 (stereo not drawn) [Example 327, 2-(3-(2,2-difluoroethyl)-2-(2,6-dimethylpyridin-4-yl)-1H-indol-5-yl)-5-(1-isopropylpiperidin-3-yl)-1,3,4-oxadiazole] | 26 | 216 | 10
2 | Cc1cc(-c2[nH]c3ccc(-c4nnc(CN5CCN(C)CC5)o4)cc3c2C(C)C)ccn1 [Example 79, 2-(3-isopropyl-2-(2-methylpyridin-4-yl)-1H-indol-5-yl)-5-((4-methylpiperazin-1-yl)methyl)-1,3,4-oxadiazole] | 65 | 1250 | 7.5
3 | CCOC(=O)N1CCC(NC(=O)c2coc(-c3ccc4[nH]c(-c5cc(C)nc(C)c5)c(C(C)C)c4c3)n2)CC1 [Example 283, ethyl 4-(2-(2-(2,6-dimethylpyridin-4-yl)-3-isopropyl-1H-indol-5-yl)oxazole-4-carboxamido)piperidine-1-carboxylate] | 147 | 2360 | 9.3
4 | CCc1c(-c2ccc(OC)c(OC)c2)[nH]c2ccc(-c3ccncc3)cc12 [Example 471, 2-(3,4-dimethoxyphenyl)-3-ethyl-5-(pyridin-4-yl)-1H-indole] | 2180 | 42300 | 238
5 | COc1ccc(-c2[nH]c3ccc(-c4ccc(N5CCN(C(C)C)CC5)nc4)cc3c2C(C)C)cc1OC [Example 393, 2-(3,4-dimethoxyphenyl)-3-isopropyl-5-(6-(4-isopropylpiperazin-1-yl)pyridin-3-yl)-1H-indole] | 60 | 666 | 11
6 | CCc1c(-c2ccc(OC)c(OC)c2)[nH]c2ccc(-c3noc([C@H]4C[C@H]5CC[C@@H](C4)N5)n3)cc12 [Example 452, 5-((1R,3r,5S)-8-azabicyclo[3.2.1]octan-3-yl)-3-(2-(3,4-dimethoxyphenyl)-3-ethyl-1H-indol-5-yl)-1,2,4-oxadiazole] | 282 | 1930 | 52
7 | Cc1cc(-c2[nH]c3ccc(-c4nnc(CC(C)(C)N)o4)cc3c2C(C)C)ccn1 [Example 265, 1-(5-(3-isopropyl-2-(2-methylpyridin-4-yl)-1H-indol-5-yl)-1,3,4-oxadiazol-2-yl)-2-methylpropan-2-amine] | 21 | 561 | 3.3
8 | CCc1c(-c2ccc(OC)c(OC)c2)[nH]c2ccc(-c3nnc(C(=O)N4CC5CNCC5C4)o3)cc12 (stereo not drawn) [Example 40, (5-(2-(3,4-dimethoxyphenyl)-3-ethyl-1H-indol-5-yl)-1,3,4-oxadiazol-2-yl)(hexahydropyrrolo[3,4-c]pyrrol-2(1H)-yl)methanone] | 154 | 325 | 18
9 | Cc1cc(-c2[nH]c3ccc(-c4cc5c(s4)CNCC5)cc3c2C(C)C)ccn1 [Example 225, 2-(3-isopropyl-2-(2-methylpyridin-4-yl)-1H-indol-5-yl)-4,5,6,7-tetrahydrothieno[2,3-c]pyridine] | 16 | 623 | 1
10 | CNCC(=O)N1CCc2cc(-c3ccc4[nH]c(-c5ccnc(C)c5)c(C(C)C)c4c3)sc2C1 [Example 252, 1-(2-(3-isopropyl-2-(2-methylpyridin-4-yl)-1H-indol-5-yl)-4,7-dihydrothieno[2,3-c]pyridin-6(5H)-yl)-2-(methylamino)ethan-1-one] | 22 | 788 | 12
11 | Cc1cc(-c2[nH]c3ccc(-c4cc(NC(=O)OC(C)(C)C)c5nccn5c4)cc3c2C(C)C)cc(C)n1 [Example 303, tert-butyl (6-(2-(2,6-dimethylpyridin-4-yl)-3-isopropyl-1H-indol-5-yl)imidazo[1,2-a]pyridin-8-yl)carbamate] | 172 | 33400 | 163
12 | Cc1cc(-c2[nH]c3ccc(-c4cc5c(s4)CN(C(C)C)CC5)cc3c2C(C)C)ccn1 [Example 228, 6-isopropyl-2-(3-isopropyl-2-(2-methylpyridin-4-yl)-1H-indol-5-yl)-4,5,6,7-tetrahydrothieno[2,3-c]pyridine] | 50 | 652 | 0.9
13 | Cc1cc(-c2[nH]c3ccc(-c4nnc(C5CN6CCC5CC6)o4)cc3c2C(C)C)cc(C)n1 (stereo not drawn) [Example 297, 2-(2-(2,6-dimethylpyridin-4-yl)-3-isopropyl-1H-indol-5-yl)-5-(quinuclidin-3-yl)-1,3,4-oxadiazole] | 6.2 | 111 | 3.1
14 | CC(C)c1c(-c2ccnc3[nH]ncc23)[nH]c2ccc(-c3nnc(CNCC(C)(C)C)o3)cc12 [Example 149, N-((5-(3-isopropyl-2-(1H-pyrazolo[3,4-b]pyridin-4-yl)-1H-indol-5-yl)-1,3,4-oxadiazol-2-yl)methyl)-2,2-dimethylpropan-1-amine] | 7280 | > 50000 | 50
15 | COc1ccc(-c2[nH]c3ccc(-c4ccc(OCCN5CCCC5)cc4)cc3c2C(C)C)cc1OC [Example 412, 2-(3,4-dimethoxyphenyl)-3-isopropyl-5-(4-(2-(pyrrolidin-1-yl)ethoxy)phenyl)-1H-indole] | 34 | > 50000 | 26
16 | CCN(CCN(C)C)C(=O)c1nnc(-c2ccc3[nH]c(-c4cc(C)nc(C)c4)c(C(C)C)c3c2)o1 [Example 300, N-(2-(dimethylamino)ethyl)-5-(2-(2,6-dimethylpyridin-4-yl)-3-isopropyl-1H-indol-5-yl)-N-ethyl-1,3,4-oxadiazole-2-carboxamide] | 10 | 346 | 2
17 | CCc1c(-c2ccnc(C)c2)[nH]c2ccc(-c3noc(CN(C)C)n3)cc12 [Example 453, 1-(3-(3-ethyl-2-(2-methylpyridin-4-yl)-1H-indol-5-yl)-1,2,4-oxadiazol-5-yl)-N,N-dimethylmethanamine] | 703 | 23200 | 32
18 | Cc1cc(-c2[nH]c3ccc(-c4nnc(Cc5c[nH]cn5)o4)cc3c2C(C)C)ccn1 [Example 144, 2-((1H-imidazol-4-yl)methyl)-5-(3-isopropyl-2-(2-methylpyridin-4-yl)-1H-indol-5-yl)-1,3,4-oxadiazole] | 258 | > 50000 | 17
19 | Cc1cc(-c2[nH]c3ccc(-c4nnc([C@@H](N)C5CC5)o4)cc3c2C(C)C)ccn1 [Example 268, (S)-cyclopropyl(5-(3-isopropyl-2-(2-methylpyridin-4-yl)-1H-indol-5-yl)-1,3,4-oxadiazol-2-yl)methanamine] | 214 | 33800 | 2.8
20 | COc1ccc(-c2[nH]c3ccc(-c4cnc(N5CCN(C6CCCC6)CC5)nc4)cc3c2C(C)C)cc1OC [Example 435, 5-(2-(4-cyclopentylpiperazin-1-yl)pyrimidin-5-yl)-2-(3,4-dimethoxyphenyl)-3-isopropyl-1H-indole] | 1550 | 3650 | 241
21 | COc1ccc(-c2[nH]c3ccc(-c4cccc(N5CCN(C)CC5)c4)cc3c2C(C)C)cc1OC [Example 369, 2-(3,4-dimethoxyphenyl)-3-isopropyl-5-(3-(4-methylpiperazin-1-yl)phenyl)-1H-indole] | 2110 | 2300 | 64
22 | Cc1cc(-c2[nH]c3ccc(-c4nc5c(s4)CNCC5)cc3c2C(C)C)cc(C)n1 [Example 308, 2-(2-(2,6-dimethylpyridin-4-yl)-3-isopropyl-1H-indol-5-yl)-4,5,6,7-tetrahydrothiazolo[5,4-c]pyridine] | 2.6 | 365 | 0.5
23 | Cc1cc(-c2[nH]c3ccc(-c4nnc(C(=O)NC5CCN(C(C)C)CC5)o4)cc3c2C(C)C)cc(C)n1 [Example 221, 5-(2-(2,6-dimethylpyridin-4-yl)-3-isopropyl-1H-indol-5-yl)-N-(1-isopropylpiperidin-4-yl)-1,3,4-oxadiazole-2-carboxamide] | 15 | 515 | 2.5
24 | CC(C)c1c(-c2ccnc3[nH]ncc23)[nH]c2ccc(-c3nnc(C4CCCN(C)C4)o3)cc12 (stereo not drawn) [Example 167, 2-(3-isopropyl-2-(1H-pyrazolo[3,4-b]pyridin-4-yl)-1H-indol-5-yl)-5-(1-methylpiperidin-3-yl)-1,3,4-oxadiazole] | 66 | 653 | 3.2
25 | Cc1cn2cc(-c3[nH]c4ccc(-c5ccc(N6CCNCC6)nc5)cc4c3C(C)C)ccc2n1 [Example 334, 6-(3-isopropyl-5-(6-(piperazin-1-yl)pyridin-3-yl)-1H-indol-2-yl)-2-methylimidazo[1,2-a]pyridine] | 45 | 672 | 214
26 | Cc1cc(-c2[nH]c3ccc(-c4ccnc(C5CCN(C(C)C)CC5)c4)cc3c2C(C)C)cc(C)n1 [Example 345, 2-(2,6-dimethylpyridin-4-yl)-3-isopropyl-5-(2-(1-isopropylpiperidin-4-yl)pyridin-4-yl)-1H-indole] | 13 | 183 | 8.5
27 | COc1ccc(-c2[nH]c3ccc(-c4cccc(C(=O)N5CCNCC5)c4)cc3c2C(C)C)cc1OC [Example 1, 2-(3,4-dimethoxyphenyl)-5-[3-(piperazine-1-carbonyl)phenyl]-3-(propan-2-yl)-1H-indole] | 107 | 2060 | 9
28 | COc1ccc(-c2[nH]c3ccc(-c4nc(C(=O)NC5CCN(C(C)C)CC5)cs4)cc3c2C(C)C)cc1OC [Example 147, 2-(2-(3,4-dimethoxyphenyl)-3-isopropyl-1H-indol-5-yl)-N-(1-isopropylpiperidin-4-yl)thiazole-4-carboxamide] | 192 | 2250 | 20
